{"source": "paper PMC10747112", "about": "“Triphenylphosphine Derivatives of Allylbenzenes Express Antitumor and Adjuvant Activity When Solubilized with Cyclodextrin-Based Formulations” (Pharmaceuticals, 2023)", "system": "HEK293T cells", "assay": "FTIR spectroscopy of HEK293T cells during incubation with drug (penetration/adsorption)", "format": "cell-based, human", "conditions": "60 min incubation (apiol-PPh3 in M-β-CD) or pre-incubation (doxorubicin controls); 37 °C", "text": "The main cell structural units that contribute to the absorption of IR diapason can be assigned as follows (Figure 5): lipids of the cell membrane (2800–3000 cm^−1), proteins, especially transmembrane (1500–1700 cm^−1), phosphate groups of DNA (1240 cm^−1) and carbohydrates, including lipopolysaccharides (900–1100 cm^−1). Previously, we developed a technique for tracking the penetration and adsorption of the drug into cells using FTIR spectroscopy: dramatic changes in the intensity of the peaks of amide 1 and amide 2 indicate effective penetration of the drug into cells and vice versa.\nHere, we present the real-time data of FTIR spectroscopy during the incubation of a suspension of HEK293T cells with apiol-PPh3 in M-β-CD (Figure 5). […] There is only a shift of the peak of amide 1 to the low-frequency region (inserts in Figure 5, the normalized intensity is shown) and amide 2 to the high-frequency region with the simultaneous appearance of the shoulder. This indicates the only adsorption of drug molecules on the cell surface, which is also confirmed by a weak increase in the intensity of the peaks at 2850–3000 cm^−1 corresponding to the valence vibrations of the CH2 groups (lipid bilayer). Thus, PPh3 derivatives show only marginal activity against normal cells.", "data": [{"smiles": "COc1cc(CCC[P+](c2ccccc2)(c2ccccc2)c2ccccc2)c(OC)c2c1OCO2", "note": "[Apiol-PPh3]", "values": [{"measurement": "changes in FTIR amide I and II peak intensity of HEK293T cells (drug penetration)", "result": "practically no changes in the intensity of the peaks of amide I and II"}]}]}
